# Source: patent US11130960B2, “Methods for conferring or enhancing herbicide resistance on plants and/or alga with protoporphyrinogen oxidase variants” (FARM HANNONG CO., LTD., priority 2014, dated 2021)
# Columns and labels:
# Mutant AtPPO1 = target: T1, Mutant AtPPO1 (Arabidopsis thaliana, UniProt P55826, S305L/Y426M); test: Growth inhibition of transformed PPO-deficient E. coli BT3(ΔPPO) on LB agar medium; assay type: cell-based; conditions: 37° C., 16~20 hours
# T1 construct: expressed in transfected cells; host or cells: E. coli BT3(ΔPPO), pACBB vector
# T1 sequence (P55826 35-537 S305L/Y426M): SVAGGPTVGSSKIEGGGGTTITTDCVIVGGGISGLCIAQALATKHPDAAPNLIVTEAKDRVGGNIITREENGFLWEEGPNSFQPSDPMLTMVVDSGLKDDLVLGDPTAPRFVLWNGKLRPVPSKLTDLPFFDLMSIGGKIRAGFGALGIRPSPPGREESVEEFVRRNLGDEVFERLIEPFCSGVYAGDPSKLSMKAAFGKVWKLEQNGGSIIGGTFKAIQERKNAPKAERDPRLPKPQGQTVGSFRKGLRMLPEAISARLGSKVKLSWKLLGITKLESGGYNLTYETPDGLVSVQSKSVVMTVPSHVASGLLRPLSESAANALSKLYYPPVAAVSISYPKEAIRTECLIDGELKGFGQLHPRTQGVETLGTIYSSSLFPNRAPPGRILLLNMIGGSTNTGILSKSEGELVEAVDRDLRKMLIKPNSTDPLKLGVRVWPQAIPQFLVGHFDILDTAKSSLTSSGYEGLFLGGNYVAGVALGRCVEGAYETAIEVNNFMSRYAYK
# Source text: (§1) To test herbicide resistance of CyPPO2, CyPPO4, CyPPO8 and CyPPO12 isolated in Example 1, PPO-deficient BT3 E. coli [hereinafter, referred to as BT3(ΔPPO)] was transformed with CyPPO2, CyPPO4, CyPPO8 or CyPPO12 gene, respectively and then cultured in the presence of herbicides to examine growth inhibition of the transformed E. coli. As a negative control, Arabidopsis thaliana-derived wild-type PPO (wild-type AtPPO1) was used, and wild-type AtPPO1 has sensitivity to PPO-based herbicides and its sequence information is available in GeneBank accession no. AX084732 (a nucleotide sequence of the gene is represented by SEQ ID NO: 10, and an amino acid sequence thereof is represented by SEQ ID NO: 9). As a positive control, Mutant AtPPO1 was used, in which amino acid replacements of Y426M (replacement of tyrosine by methionine at position 426) and S305L (replacement of serine by leucine at position 305) occur in the amino acid sequence of the wild-type AtPPO1 (an amino acid sequence is represented by SEQ ID NO: 11) (Li X, Volrath S L., N D B. G., Chilcott C E, Johnson M A, Ward E R, Law M D (2003) Development of protoporphyrinogen oxidase as an efficient selection marker for Agrobacterium tumefaciens-mediated transformation of maize. Plant physiology 133:736-747).
# (§2) BT3(ΔPPO) strain was provided by Hokkaido University (Japan) and it is an E. coli strain which is deficient in hemG-type PPO and has Kanamycin resistance (Watanabe et al., (2001) Dual targeting of spinach protoporphyrinogen oxidase II to mitochondria and chloroplasts by alternative use of two in-frame […] codons. JBC 2047420481).
# (§3) HVE-50 autoclave from Hirayama, HS2100A electronic scale from Hansung Instrument, CB-30V clean bench from Jeio Tech, JSI-200CL incubator from JSR, 1210 type UV-visible spectrophotometer from Thermo Fisher Scientific, MQ-200 photometer from Apogee, and Bio-Rad MyCycler as PCR machine were used. The autoclave was used under conditions of 121° C. and 15 minutes, and the incubator was used at 37° C. with lighting of 160˜200 μmol m^−2 s^−1 for a culture time of 14˜20 hours. LB medium (10 g/L of Bacto-Tryptone, 5 g/L of Yeast extract, 10 g/L of sodium chloride, 15 g/L of Bacto agar) and an antibiotic Chloramphenicol (Duchefa) were used.
# (§4) To clone each of the CyPPO2, CyPPO4, CyPPO8 and CyPPO12 genes isolated and amplified in Example 1 into pACBB (its structure is shown in FIG. 2), 10 μl of a solution containing 4 μl of each PPO gene, […], 1 μl of 10× buffer A, 1 μl of 10× buffer B, 1 μl of ligase (RBC, 3 unit/μl) was prepared and allowed to react at 22° C. for 30 minutes. The reaction solution was added to 100 μl of DH5 alpha competent cells, and allowed to react on ice for 20 minutes and then left at 42° C. for 40 seconds. Thereafter, the cells were left on ice for 2 minutes, and then 1 ml of LB broth was added thereto, followed by incubation with shaking at 37° C. for 1 hour. The strains having each gene insert in the culture medium were harvested, and then cultured on LB agar medium containing chloramphenicol.
# (§5) For seed culture of E. coli transformed with respective genes, single colonies thereof were cultured in 3 ml of LB broth containing chloramphenicol overnight, and each 100 μl thereof was sub-cultured in 3 ml of fresh LB broth until absorbance (OD600) reached 0.5˜1. They were diluted with LB broth to absorbance (OD600) of 0.5. 10-fold dilution of this diluted solution was performed with LB broth five times. Next, 10 μl of the diluted solution of the transformed E. coli culture was dropped on LB agar medium (petri dish) containing chloramphenicol and a variety of herbicide stocks at different concentrations (0˜400 μM). The LB agar plates were incubated at 37° C. At 16˜20 hours after culture, growth inhibition was examined with the naked eye. Further, growth inhibition of the strains cultured in a medium containing Tiafenacil was examined under light (lighting of 169 μmol m^−2s^−1) and dark conditions.
# CyPPO12 = test: as above; assay type: cell-based, Microcoleus vaginatus; conditions: 37° C., 16~20 hours
# Source text: as §1, §2, §3, §4, §5
# wild-type AtPPO1 = target: T2, wild-type AtPPO1 (Arabidopsis thaliana, UniProt P55826); test: as above; assay type: cell-based
# T2 construct: expressed in transfected cells; host or cells: E. coli BT3(ΔPPO), pACBB vector
# T2 sequence (P55826 35-537): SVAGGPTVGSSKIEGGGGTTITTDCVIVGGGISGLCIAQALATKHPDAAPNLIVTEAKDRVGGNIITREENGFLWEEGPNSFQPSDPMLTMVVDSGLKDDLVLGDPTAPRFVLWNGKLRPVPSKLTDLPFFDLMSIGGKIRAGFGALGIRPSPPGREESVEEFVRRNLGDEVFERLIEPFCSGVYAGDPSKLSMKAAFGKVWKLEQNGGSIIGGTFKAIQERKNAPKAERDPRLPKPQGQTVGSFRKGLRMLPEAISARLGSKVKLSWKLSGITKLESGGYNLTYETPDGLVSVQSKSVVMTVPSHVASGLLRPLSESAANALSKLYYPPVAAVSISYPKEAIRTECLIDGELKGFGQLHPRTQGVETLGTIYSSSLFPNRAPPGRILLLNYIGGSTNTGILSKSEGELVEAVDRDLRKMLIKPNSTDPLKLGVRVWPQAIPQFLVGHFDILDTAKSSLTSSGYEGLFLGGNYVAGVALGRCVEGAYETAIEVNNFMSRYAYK
# Source text: as §1, §2, §3, §4, §5
# CyPPO4 = test: as above; assay type: cell-based, Lyngbya sp. PCC 8106; conditions: 37° C., 16~20 hours
# Source text: as §1, §2, §3, §4, §5
# wild-type Col-0 plants = test: Herbicide spray test on Arabidopsis thaliana plants; assay type: in vivo; conditions: for outcome of plants at 7 days after spraying: 2-3 ml of 0.5 μM Tiafenacil, 1 μM Saflufenacil, or 3 μM Fomesafen per plant grown about 4 weeks
# Protocol: To examine resistance of the transplanted T1 plants against PPO-based herbicides, the plants were grown for about 3-4 weeks, and then treated with herbicides prior to flower stalk elongation. […] Therefore, 1 μM tiafenacil was evenly applied at an amount proper for the number of plant individuals. After 7 days, resistance of the transformants against PPO-based herbicides was examined.
# To examine whether herbicide resistance traits are maintained in the next generations of plants, respective T2 generation plants of Arabidopsis thaliana which were transformed with CyPPO2, CyPPO4 and CyPPO8 genes were subjected to an herbicide resistance test. 2-3 ml of 0.5 μM Tiafenacil, 1 μM Saflufenacil, or 3 μM Fomesafen was sprayed onto each Arabidopsis thaliana plant grown for about 4 weeks.
# [1] = test system: mutant AtPPO1 transformant; test: Herbicide spray test on Arabidopsis thaliana T2 plants; assay type: in vivo; conditions: 2-3 ml of 0.5 μM Tiafenacil, 1 μM Saflufenacil, or 3 μM Fomesafen per plant
# [2] = LB agar medium, 37° C., 16~20 hours
Structure (SMILES),concentration at which growth inhibition was not / hardly observed (Mutant AtPPO1) [µM],concentration at which growth inhibition was not / hardly observed (CyPPO12) [µM],concentration at which growth inhibition was hardly observed (CyPPO4) [µM],further results
CC(C)=C1OC(=O)N(c2cc(OC3CCCC3)c(Cl)cc2F)C1=O [Pentoxazone],25,25,,
C#CCN(C)c1c(C#N)cnn1-c1nn2c(c1Cl)CCCC2 [Pyraclonil],25,25,,concentration at which the strain hardly grew (wild-type AtPPO1; [2]): 25 µM
CC(C)N(C)S(=O)(=O)NC(=O)c1cc(-n2c(=O)cc(C(F)(F)F)n(C)c2=O)c(F)cc1Cl [Saflufenacil],25,25,25,outcome of plants at 7 days after spraying (wild-type Col-0 plants): killed; outcome of plants at 7 days after spraying [1]: continued to grow without damage
C#CCN1C(=O)COc2cc(F)c(N3C(=O)C4=C(CCCC4)C3=O)cc21 [Flumioxazin],,25,25,
CCOc1cc(Oc2ccc(C(F)(F)F)cc2Cl)ccc1[N+](=O)[O-] [Oxyfluorfen],,,400,concentration at which growth inhibition began (Mutant AtPPO1): 5 µM
COC(=O)CCNC(=O)C(C)Sc1cc(-n2c(=O)cc(C(F)(F)F)n(C)c2=O)c(F)cc1Cl (stereo not shown) [Tiafenacil],25,25,25,"growth at 1 μM under dark condition (wild-type AtPPO1; agar medium, 1 μM, dark condition): rather maintained; concentration at which growth was completely inhibited (wild-type AtPPO1; agar medium, both light and dark conditions): ≥ 5 µM; concentration at which growth was almost completely inhibited (wild-type AtPPO1; agar medium, light condition): 1 µM; outcome of plants at 7 days after spraying (wild-type Col-0 plants): killed; outcome of plants after herbicide treatment (wild-type Col-0 plants; 2-3 ml of 1 μM tiafenacil (+0.05% Silwet L-77) per plant): killed; outcome of plants at 7 days after spraying [1]: continued to grow without damage"
Cc1nn(-c2cc(NS(C)(=O)=O)c(Cl)cc2Cl)c(=O)n1C(F)F [Sulfentrazone],25,25,400,concentration at which growth inhibition began (wild-type AtPPO1; [2]): 0.5 µM
CCOC(=O)COc1cc(-c2nn(C)c(OC(F)F)c2Cl)c(F)cc1Cl [Pyraflufen-ethyl],25,25,,concentration at which growth inhibition began (wild-type AtPPO1; [2]): 0.5 µM
C=CCOC(=O)C(C)(C)OC(=O)c1cc(-n2c(=O)cc(C(F)(F)F)n(C)c2=O)ccc1Cl [Butafenacil],25,,,
CC(C)Oc1cc(-n2nc(C(C)(C)C)oc2=O)c(Cl)cc1Cl [Oxadiazon],25,25,,concentration at which growth inhibition began (wild-type AtPPO1; [2]): 0.5 µM
O=C(O)c1cc(Oc2ccc(C(F)(F)F)cc2Cl)ccc1[N+](=O)[O-] [Acifluorfen],,,400,
CS(=O)(=O)NC(=O)c1cc(Oc2ccc(C(F)(F)F)cc2Cl)ccc1[N+](=O)[O-] [Fomesafen],≤ 25,,400,concentration at which growth inhibition was observed (wild-type AtPPO1; [2]): 5 µM; outcome of plants at 7 days after spraying (wild-type Col-0 plants): killed; outcome of plants at 7 days after spraying [1]: continued to grow without damage
